What was measured:
bone resorption = assay: Test for inhibition of bone resorption: urine hydroxyproline/creatinine ratio in rats on calcium-deficient food; format: in vivo, male Wister rats; settings: for effect on increase in urine hydroxyproline/creatinine ratio (in words): 100 mg/kg p.o., vs control; for Urinary hydroxyproline excretion (ratio to creatinine): single 100 mg/kg p.o., urine 16 hours, control 174 ± 7, normal 134 ± 7, * P < 0.05 vs control (Compound D)
Experimental: Furthermore, an investigation of its suppressive effect was carried out on bone resorption by administering the compound of the present invention to rats kept on a calcium-deficient food and using the urinary hydroxyproline excretion (ratio to creatinine) as an index.
(§1) After the last administration of the test compounds on day 20, the rats were transferred into metabolic cages, and urine samples were collected overnight without supply of food or water. Urine volume and the amounts of creatinine and hydroxyproline were determined by the following method, and urinary hydroxyproline excretion expressed in the ratio to creatinine. Statistical analysis was made according to the Tukey's method for the superiority of test compound group over the control group. Determination of creatinine was carried out using Creatinine TestWAKO (Wako Junyaku). Hydroxyproline was determined by first hydrolyzing the urine with 6N hydrochloric acid, then isolation on high performance liquid chromatograph equipped with ion-exchange column (Hitachi Gel #2619), reaction with O-phthalaldehyde to form a hydroxyproline derivative, and measurement on a fluorophotometer.
6-week old male Wister rats (SLC Japan) were kept on a calcium-deficient food (Oriental Yeast, 0.0105-0.012% calcium, 0.62% phosphorus), orally administered 100 mg/kg of compound D or Y in a 0.5% CMC suspension on day 6 and, immediately thereafter, urine was collected for 16 hours under the condition of fasting with free access to water. The urine volume and urinary hydroxyproline and creatinirie content were measured by the method described in Example 3, and the urine hydroxyproline/creatinie ratio was calculated. Statistical analysis was made using the Tukey's method for the superiority of the test compound group over the control group.

adjuvant arthritis [1] = assay: Adjuvant arthritis model: serum calcium concentration; format: in vivo, male Lewis rats; settings: 100 mg/kg at 12-hour intervals for 20 days; for effect on increase in serum calcium concentration (in words): vs control; for Serum calcium conc.: day 21, control 9.5 ± 0.1, normal 8.6 ± 0.1, ** P < 0.01 vs control (Compound D)
Experimental: (§2) 8-week old male Lewis rats (Charles River Japan, K.K.) were divided into 4 groups (normal control group, control group, and two test compound groups) of 7 animals each. Each of the rats of the control group and the test compound groups were intra-dermally injected with 0.6 mg of heat-killed M. butyricum in 0.1 ml of liquid paraffin suspension in their right hind paw to induce adjuvant arthritis. The test compounds were suspended in 0.5% CMC, and administered to the rats of the test compound group at a dose of 100 mg/kg per administration immediately after the injection of adjuvant and at 12-hour intervals thereafter over a period of 20 days. The rats of the control group received 0.5% CMC immediately after the injection of adjuvant and at 12-hour intervals thereafter over a period of 20 days. The rats of the normal control group were not injected with adjuvant but only administered 0.5% CMC analogously to the administration of the test compounds.
Measurement was carried out on the same sample as above 2) using Calcium TestWAKO (Wako Junyaku), and statistical analysis was made according to the Dunnett's method for the superiority of the test compound group over the control group.

adjuvant arthritis [2] = assay: Adjuvant arthritis model: urinary hydroxyproline excretion; format: in vivo, male Lewis rats; settings: for Urinary hydroxyproline excretion (ratio to creatinine): after day 20, 100 mg/kg at 12-hour intervals, control 94.3 ± 1.8, normal 71.8 ± 2.6
Experimental: as §2, §1

adjuvant arthritis [3] = assay: Adjuvant arthritis model: erythrocyte sedimentation rates; format: in vivo, male Lewis rats; settings: 100 mg/kg at 12-hour intervals for 20 days; for effect on increase in erythrocyte sedimentation rates (in words): vs control; for Erythrocyte sedimentation rates: day 21, control 33 ± 2, normal 1 ± 0.1, ** P < 0.01 vs control (Compound D)
Experimental: as §2
The blood was fully removed on day 21 and used as a sample. Erythrocyte sedimentation measuring apparatus (Matsuyoshi's Erythrocyte Sedimentation rack) was used for the measurement, and statistical analysis was made according to the Dunnett's method for the superiority of the test compound group over the control group.

collagenase [4] = assay: Collagenase activity inhibition rate in blood after oral administration (in mice); format: in vivo; settings: 30 mg/kg p.o.; for Collagenase Inhibition rates in blood after oral administration, After 2 hours: after 2 hours (as printed in head; text says 3 hours)
Experimental: Test compounds were suspended in 0.5% CMC and orally administered to three mice per group (the dose of the test compound, 30 mg/kg), and after a certain period of time, the blood was collected in the presence of heparin and ice-cooled. Plasma was obtained by centrifugation of this blood at 10,000 rpm for 5 minutes at 4° C. To 400 μl of this plasma was added to 600 μl of distilled water, and heated at 100° C. for 10 minutes. After cooling, the mixture was centrifuged at 10,000 rpm for 5 minutes and filtered using a micro-volume ultrafiltration unit (Molcut II, Millipore) to provide a sample (A) for use in collagenase activity measurement. Using this sample, collagenase activity inhibition rate in blood was determined by the following method.
The sample (A) above was mixed with a known amount of collagenase (the collagenase used was prepared by the method described in JP-A-3-103178) dissolved in a buffer for measurement (50 mM Tris-HCl buffer, pH 7.5, containing 0.2M sodium chloride, 5 mM calcium chloride, 0.05% Brij-35 and 0.02% sodium azide,), and collagenase activity A was measured according to the method of Nagai et al. (Japanese Journal of Inflammation, 4, 123 (1984)) using a fluorescein isothiocyanate-labeled type-I collagen as a substrate. […] Inhibition rate was determined from the following equation:
Inhibition rate (%)=(1-A/B)×100

[5] = set-up: species or system mice; settings: mouse, in vivo, 3000 mg/kg
adjuvant arthritis [6] = assay: Adjuvant arthritis model: hind paw volume (swelling of adjuvant-uninjected hind paw); format: in vivo, male Lewis rats; settings: 100 mg/kg at 12-hour intervals for 20 days; FIG. 1; t-test vs control
Experimental: as §2
The volume of the hind paw was measured immediately before and on days 3, 7, 10, 14, 17 and 20 after the injection of adjuvant using a foot volume measuring apparatus. Analysis was made using t-test for superiority of the test compound group over the control group.
In the figure, lines n, c, y and d indicate the volume of the hind paw for the following groups, respectively: […]

collagenase [7] = assay: Activity in the living body / absorbability (general statements); settings: in vivo

## CNC(=O)[C@H](Cc1ccccc1)NC(=O)[C@H](CC(C)C)[C@H](CSc1cccs1)C(=O)NO [Known compound Y, [4-(N-hydroxyamino)-2(R)-isobutyl-3(S)-(2-thienyl)thiomethylsuccinyl]-L-phenylalanine-N-methylamide, reference compound]
Bone resorption
  effect on increase in urine hydroxyproline/creatinine ratio (in words): hardly suppressed this increase
  Urinary hydroxyproline excretion (ratio to creatinine): 161 ± 3 μg/mg creatinine
Adjuvant arthritis [1]
  effect on increase in serum calcium concentration (in words): no such effect was noted
  Serum calcium conc.: 9.6 ± 0.1 mg/dL
Adjuvant arthritis [2]
  Urinary hydroxyproline excretion (ratio to creatinine): 107.1 ± 6.5 μg/mg creatinine
Adjuvant arthritis [3]
  effect on increase in erythrocyte sedimentation rates (in words): no such effect was noted
  Erythrocyte sedimentation rates: 30 ± 3
Collagenase [4]
  Collagenase Inhibition rates in blood after oral administration, After 1 hour: 14%
  Collagenase Inhibition rates in blood after oral administration, After 2 hours: 21%

## CNC(=O)C(NC(=O)C(CC(C)C)C(C)C(=O)NO)c1ccccc1 (single isomer, unassigned) [Compound D]
[5]
  death after oral administration: no death was observed
Bone resorption
  effect on increase in urine hydroxyproline/creatinine ratio (in words): exhibited a significant suppression from the level of the control group
  Urinary hydroxyproline excretion (ratio to creatinine): 144 ± 5 μg/mg creatinine
Adjuvant arthritis [1]
  effect on increase in serum calcium concentration (in words): significantly suppressed the increase in serum calcium concentration
  Serum calcium conc.: 8.9 ± 0.1 mg/dL
Adjuvant arthritis [6]
  swelling (volume increase) of the adjuvant-uninjected hind paw: suppressed the swelling (volume increase) of the adjuvant-uninjected hind paw
Adjuvant arthritis [2]; 100 mg/kg at 12-hour intervals for 20 days
  effect on increase in urinary hydroxyproline excretion (in words): tended to suppress the increase in urinary hydroxyproline excretion
Adjuvant arthritis [2]
  Urinary hydroxyproline excretion (ratio to creatinine): 78.4 ± 6.1 μg/mg creatinine
Adjuvant arthritis [3]
  effect on increase in erythrocyte sedimentation rates (in words): significantly suppressed the increase in erythrocyte sedimentation rates
  Erythrocyte sedimentation rates: 20 ± 2
Collagenase [4]
  Collagenase Inhibition rates in blood after oral administration, After 1 hour: 87%
  Collagenase Inhibition rates in blood after oral administration, After 2 hours: 76%
Collagenase [7]
  activity in the living body (in words): exhibits an excellent activity in the living body

Reference: patent publication US5795891A, “Acylphenylglycine derivative and preventive and remedy for diseases caused by increased collagenase activity containing said compound as active ingredient” (Kanebo Ltd., priority 1993, dated 1998)
